According to patent US20140130208A1, “METHODS AND MEANS TO PRODUCE ABIOTIC STRESS TOLERANT PLANTS” (VIB VZW, priority 2011, published 2014):

What was measured:
[1] = system: Arabidopsis thaliana third true leaf; assay: Growth (kinematic) analysis of the third leaf after transfer of seedlings to mannitol- or ACC-containing medium; assay type: in vivo; conditions: for reduction in leaf area: 72 h after transfer to mannitol (12 DAS)
Description: Arabidopsis seedlings were germinated and grown on nylon meshes overlaying control medium until 9 days after stratification (DAS), when the third true leaf is fully proliferating (Skirycz et al., 2010), and subsequently transferred to control or mannitol-containing medium (FIGS. 1A to 10). Kinematic analysis was performed, whereby leaves were harvested daily throughout development of leaf 3 (9-20 DAS) and based on drawings of the abaxial epidermis cell number, cell area, number of guard cells and cell division and cell expansion rates were calculated (De Veylder et al., 2001). […] Leaf and plant morphology were not altered by mannitol (FIG. 2C). Cell expansion was also affected by stress and the reduced final leaf area was a combination of fewer and smaller cells (FIG. 2D). The stomatal index, which represents the number of stomata as a fraction of the total number of cells, was reduced as well (FIG. 2E). To learn more about the mechanisms underlying the rapid reduction of cell division upon stress onset, we harvested leaf samples daily after transfer. As a measure of cellular differentiation, the ploidy distribution was examined by flow cytometry. […] In stressed leaves, 4C nuclei started to accumulate approximately one day earlier than in controls at the expense of 2C nuclei (FIG. 3A). Analogously, the number of 8C nuclei increased sharply at 14 DAS in stressed leaves, but only at 15 DAS in control samples (FIG. 3A). Again, transfer itself had no effect on ploidy levels (not shown). […] This observation was further investigated with a CYCB1;1:Dbox-GUS reporter line. Staining for CYCB1;1:Dbox-GUS activity visualizes cells at the G2-to-M transition, reflecting mitotic activity (Colón-Carmona et al., 1999). The most apparent differences were observed 48 h after transfer. […] While the relative size of the cell proliferation zone was similar in mannitol-treated leaves, the remaining proliferating cells were found in a dispersed pattern throughout this zone. […] Within a few days after transfer, division rates adapted to the new conditions and compensation effects were observed.
Seedlings of Arabidopsis thaliana (L.) Heyhn. ecotype Columbia-0 (Col-0) were grown in vitro in half-strength Murashige and Skoog medium (Murashige and Skoog, 1962), supplemented with 1% sucrose under a 16-h day (110 μmol m^−2 s^−1) and 8-h night regime. Plates were overlaid with nylon mesh (Prosep, Zaventem, Belgium) of 20 μm pore size to avoid that roots grew into the medium. Depending on the experiment, 32 or 64 seeds were equally distributed on a 150-mm diameter plate. Mutant plants were grown together with their wild-type controls on the same plate.
At 9 DAS, when the third leaf is fully proliferating, seedlings were transferred to plates containing control medium or medium supplemented with 25 mM mannitol (Sigma-Aldrich) or 5 μM ACC (Sigma-Aldrich) by gently lifting the nylon mesh with forceps. For the CDKA activity assay the transfer was done at 11 DAS; at this stage, the third leaf is still dividing and can be quickly harvested without the need for RNAlater solution (see below) that would inhibit CDKA activity. All transfers were performed 2-3 h into the day.
Growth analysis was performed on the third true leaf harvested at different time points after transfer. After clearing with 70% ethanol, leaves were mounted in lactic acid on microscopic slides. For each experiment, 8-12 leaves were photographed with a binocular, and epidermal cells (40-300) were drawn for four representative leaves with a DMLB microscope (Leica) fitted with a drawing tubus and a differential interference contrast objective. Photographs of leaves and drawings were used to measure leaf and cell area, respectively, with ImageJ v1.41o (NIH; http://rsb.info.nih.gov/ij/), from which the cell numbers were calculated. The stomatal index was defined as the percentage of stomata per all cells. […]

[2] = system: CYCB1;1:Dbox-GUS reporter line; assay: CYCB1;1:DBox-GUS staining of mitotic activity in leaf 3; assay type: in vivo, Arabidopsis thaliana; conditions: 48 h after transfer to 25 mM mannitol or 5 μM ACC
Description: Arabidopsis seedlings were germinated and grown on nylon meshes overlaying control medium until 9 days after stratification (DAS), when the third true leaf is fully proliferating (Skirycz et al., 2010), and subsequently transferred to control or mannitol-containing medium (FIGS. 1A to 10). Kinematic analysis was performed, whereby leaves were harvested daily throughout development of leaf 3 (9-20 DAS) and based on drawings of the abaxial epidermis cell number, cell area, number of guard cells and cell division and cell expansion rates were calculated (De Veylder et al., 2001). […] Leaf and plant morphology were not altered by mannitol (FIG. 2C). Cell expansion was also affected by stress and the reduced final leaf area was a combination of fewer and smaller cells (FIG. 2D). The stomatal index, which represents the number of stomata as a fraction of the total number of cells, was reduced as well (FIG. 2E). To learn more about the mechanisms underlying the rapid reduction of cell division upon stress onset, we harvested leaf samples daily after transfer. As a measure of cellular differentiation, the ploidy distribution was examined by flow cytometry. […] In stressed leaves, 4C nuclei started to accumulate approximately one day earlier than in controls at the expense of 2C nuclei (FIG. 3A). […]

[3] = transfer at 9 DAS to 25 mM mannitol or 5 μM ACC, leaf 3

OC[C@@H](O)[C@@H](O)[C@H](O)[C@H](O)CO [mannitol]
leaf and plant morphology ([1]; 25 mM mannitol): not altered
reduction of leaf area ([1]; 25 mM mannitol in growth medium): approximately 50%
reduction in leaf area ([1]; ein5.1 mutant): ~20%
reduction in leaf area ([1]; etr1.3 mutant): ~30%
cell proliferation rates [1, 3]: reduced proliferation rates
stomatal index [1, 3]: reduced
reduction in leaf area ([1]; wild type): ~45%
number of mitotic cells (CYCB1;1:DBox-GUS activity) [2]: reduced number of mitotic cells
